Data published in patent publication US20200383985A1, “Inhibitors of Protease Activated Receptor-2” (Endosome Therapeutics, Inc., priority 2017, published 2020).
“Also recorded” adds a separate entry of the source. Read-outs that look alike come from different tables or passages of the source.

Key:
[1] = target: T1, PAR2 (Homo sapiens, UniProt P55085); assay: IP1 accumulation assay in HEK293 cells (endogenous PAR2); format: cell-based; conditions: trypsin (30 nM)
T1 construct: HT-29 cells and HEK293 cells, which express endogenous PAR2; endogenous in cells; host or cells: HT-29
T1 sequence (P55085 26-397): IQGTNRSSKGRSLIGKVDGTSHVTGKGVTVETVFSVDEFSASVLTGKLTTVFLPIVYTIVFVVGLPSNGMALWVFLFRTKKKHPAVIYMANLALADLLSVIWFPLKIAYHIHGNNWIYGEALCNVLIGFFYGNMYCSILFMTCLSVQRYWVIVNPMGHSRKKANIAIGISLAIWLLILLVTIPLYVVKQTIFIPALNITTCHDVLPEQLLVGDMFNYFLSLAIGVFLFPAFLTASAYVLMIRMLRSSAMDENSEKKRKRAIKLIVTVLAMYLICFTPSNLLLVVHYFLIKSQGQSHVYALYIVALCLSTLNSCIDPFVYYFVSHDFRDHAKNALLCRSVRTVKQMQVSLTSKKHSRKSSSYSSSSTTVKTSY
Experimental: Inhibition of PAR2 signaling with known PAR2 inhibitor I-343 (FIG. 14A) was investigated in HT-29 cells and HEK293 cells, which express endogenous PAR2, and in KNRK cells expressing human (h) PAR2. Accumulation of inositol phosphate-1 (IP1) was measured in response to the PAR2-selective agonist 2-Furoyl-LIGRLO-NH2 (2F), an analogue of the trypsin-exposed tethered ligand, or trypsin.
KNRK-hPAR2, KNRK, HEK293, or HT-29 cells were seeded at a density of 50×10^3 cells/well onto clear 96-well plates (PerkinElmer). After 24 h of culture, medium was replaced with IP1 stimulation buffer (10 mM HEPES, 1 mM CaCl2, 0.5 mM MgCl2, 4.2 mM KCl, 146 mM NaCl, 5.5 mM glucose, 50 mM LiCl; 37° C., 5% CO2.). Cells were pre-incubated with the antagonist or vehicle for 30 min prior to the addition of agonist. Cells were then further incubated for 40 min. Stimulation buffer was […]

[2] = tested on: mice; assay: Visceromotor response (VMR) to colorectal distension (CRD); format: in vivo, mouse; conditions: 30 mg/kg, 100 μL enema into the colon, 30 min before the protease mixture
Experimental: (§1) Noxious colorectal distension (CRD) triggers the visceromotor response (VMR), a nociceptive brainstem reflex consisting of contraction of abdominal muscles, which can be monitored by electromyography. This approach allows assessment of visceral sensitivity in awake mice (Castro, J. et al., Br. J. Pharmacol. 2017, 175(12): 2384-2398). To examine protease-induced hy-persensitivity, a protease mixture (10 nM trypsin+100 nM NE+100 nM CS) or vehicle (saline) (100 μL) was instilled into the colon (enema) of healthy mice. After 15 min, the VMR was measured in response to graded CRD (20-80 mm Hg) with a barostat balloon. In vehicle-treated mice, CRD induced a graded VMR (FIG. 9I). […] Because alterations in the compliance of the colon can alter VMR to CRD, the pressure/volume relationship was measured at all distending pressures. Compliance of the colon was unaffected by the protease mixture or I-343 (FIGS. 21E and F). […]
(§2) Electromyography (EMG) of abdominal muscles was used to monitor VMR to CRD (Eichel, K. et al., Nat. Cell Biol. 2016, 18(3): 303-310). […] The EMG signal was recorded (NL100AK headstage), amplified (NL104), filtered (NL 125/126, Neurolog, Digitimer Ltd, bandpass 50-5000 Hz), and digitized (CED 1401, Cambridge Electronic Design) for off-line analysis using Spike2 (Cambridge Electronic Design). […]

[3] = tested on: mice; assay: Colonic compliance in awake mice; format: in vivo, mouse; conditions: awake healthy mice
Experimental: as §1, §2

Cc1nc(C(=O)N2CCN(C(=O)c3cn4nc(-c5ccc(F)cc5)cc(C(C)(C)C)c4n3)C(C)(C)C2)n[nH]1 [Compound I-343, (8-(tert-butyl)-6-(4-fluorophenyl)imidazo[1,2-b]pyridazin-2-yl)(2,2-dimethyl-4-(5-methyl-1H-1,2,4-triazole-3-carbonyl)piperazin-1-yl)methanone]
IC50 ([1]; read-out: IC50, trypsin-induced IP1 in HEK293 cells): 0.4 nM
IC50 ([1]; read-out: pIC50, trypsin-induced IP1 in HEK293 cells (converted)): 0.437 nM
protease mixture-amplified VMR to CRD [2]: abolished the response
compliance of the colon (pressure/volume relationship) [3]: unaffected; also recorded: unchanged
